The values below come from patent US12441691B2 (Cytokinetics, Inc., priority 2020, dated 2025).

The test concerns rabbit skeletal myofibrils (fast skeletal myofibrils). Kind of test: Activation of fast skeletal myofibrils (PUMA assay, AC1.4). Type of test: biochemical. Conditions: calcium at pCa25, AC1.4 = concentration at which the compound increased the enzymatic activity. Put shortly: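 In 12 mM PIPES pH 6.8 with 2 mM MgCl2 and 1 mM DTT, Triton-washed rabbit skeletal myofibrils were run at the pCa25 calcium level. Myosin-made ADP was recycled through a PK/LDH coupled system; NADH loss read at 340 nm.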
In the case of `CC[C@H](C)[C@H]1C(=O)Nc2ccccc2CN1C(=O)N[C@@H](C)C(=O)NC` [Compound 232, (S)-3-((S)-sec-butyl)-N-((S)-1-(methylamino)-1-oxopropan-2-yl)-2-oxo-1,2,3,5-tetrahydro-4H-benzo[e][1,4]diazepine-4-carboxamide], the AC1.4 is 3.47 µM.

`CC[C@H](C)[C@H]1C(=O)Nc2ccccc2CN1C(=O)N(C)c1cnccn1` [Compound 233, (S)-3-((S)-sec-butyl)-N-methyl-2-oxo-N-(pyrazin-2-yl)-1,2,3,5-tetrahydro-4H-benzo[e][1,4]diazepine-4-carboxamide]: the AC1.4 worked out at 2.16 µM.

In the case of `CC[C@H](C)[C@H]1C(=O)Nc2ccccc2CN1C(=O)N1CCC(N(C)C)C1` (stereo partly drawn) [Compound 234, (3S)-3-((S)-sec-butyl)-4-(3-(dimethylamino)pyrrolidine-1-carbonyl)-1,3,4,5-tetrahydro-2H-benzo[e][1,4]diazepin-2-one], the AC1.4 is 4.64 µM.

Take `CC[C@H](C)[C@H]1C(=O)Nc2ccccc2CN1C(=O)N(C)C1CCN(C)C1` (stereo partly drawn) [Compound 235, (3S)-3-((S)-sec-butyl)-N-methyl-N-(1-methylpyrrolidin-3-yl)-2-oxo-1,2,3,5-tetrahydro-4H-benzo[e][1,4]diazepine-4-carboxamide]: the AC1.4 is 1.45 µM.

For the compound `CC[C@H](C)[C@H]1C(=O)Nc2ccccc2CN1C(=O)N1CCC[C@H]1C(=O)O` [Compound 236, ((S)-3-((S)-sec-butyl)-2-oxo-2,3,4,5-tetrahydro-1H-benzo[e][1,4]diazepine-4-carbonyl)-L-proline], the AC1.4 was 3.43 µM.

Take `CC[C@H](C)[C@H]1C(=O)Nc2ccccc2CN1C(=O)N(C)Cc1coc(C)n1` [Compound 237, (S)-3-((S)-sec-butyl)-N-methyl-N-((2-methyloxazol-4-yl)methyl)-2-oxo-1,2,3,5-tetrahydro-4H-benzo[e][1,4]diazepine-4-carboxamide]: the AC1.4 came to 1.86 µM.

Turning to `CC[C@H](C)[C@H]1C(=O)Nc2ccccc2CN1C(=O)N1CCCC(C(N)=O)C1` (stereo partly drawn) [Compound 238, 1-((S)-3-((S)-sec-butyl)-2-oxo-2,3,4,5-tetrahydro-1H-benzo[e][1,4]diazepine-4-carbonyl)piperidine-3-carboxamide], the AC1.4 came to 4.49 µM.

For the compound `CC[C@H](C)[C@H]1C(=O)Nc2ccccc2CN1C(=O)N1CCC(N(C)C)CC1` [Compound 239, (S)-3-((S)-sec-butyl)-4-(4-(dimethylamino)piperidine-1-carbonyl)-1,3,4,5-tetrahydro-2H-benzo[e][1,4]diazepin-2-one], the AC1.4 stood at 1.65 µM.

For the compound `CC[C@H](C)[C@H]1C(=O)Nc2ccccc2CN1C(=O)N(C)CCS(C)(=O)=O` [Compound 240, (S)-3-((S)-sec-butyl)-N-methyl-N-(2-(methylsulfonyl)ethyl)-2-oxo-1,2,3,5-tetrahydro-4H-benzo[e][1,4]diazepine-4-carboxamide], the AC1.4 came out at 2.87 µM.

As to `CC[C@H](C)[C@H]1C(=O)Nc2ccccc2CN1C(=O)N1CCCn2c(C)nnc21` [Compound 241, (S)-3-((S)-sec-butyl)-4-(3-methyl-5,6,7,8-tetrahydro-[1,2,4]triazolo[4,3-a]pyrimidine-8-carbonyl)-1,3,4,5-tetrahydro-2H-benzo[e][1,4]diazepin-2-one], the AC1.4 was 1.35 µM.

In the case of `CC[C@H](C)[C@H]1C(=O)Nc2ccccc2CN1C(=O)N1CCC(N(C)C(C)=O)C1` (stereo partly drawn) [Compound 242, N-(1-((S)-3-((S)-sec-butyl)-2-oxo-2,3,4,5-tetrahydro-1H-benzo[e][1,4]diazepine-4-carbonyl)pyrrolidin-3-yl)-N-methylacetamide], the AC1.4 amounted to 4.30 µM.

Take `CC[C@H](C)[C@H]1C(=O)Nc2ccccc2CN1C(=O)N1CCN(C(=O)OC)CC1` [Compound 243, methyl 4-((S)-3-((S)-sec-butyl)-2-oxo-2,3,4,5-tetrahydro-1H-benzo[e][1,4]diazepine-4-carbonyl)piperazine-1-carboxylate]: the AC1.4 was 1.93 µM.

In the case of `CC[C@H](C)[C@H]1C(=O)Nc2ccccc2CN1C(=O)N1CCCC1c1nc(C)no1` (stereo partly drawn) [Compound 244, (3S)-3-((S)-sec-butyl)-4-(2-(3-methyl-1,2,4-oxadiazol-5-yl)pyrrolidine-1-carbonyl)-1,3,4,5-tetrahydro-2H-benzo[e][1,4]diazepin-2-one], the AC1.4 is 2.43 µM.

As to `CC[C@H](C)[C@H]1C(=O)Nc2ccccc2CN1C(=O)N1CCC2(CC1)CNC(=O)C2` [Compound 245, (S)-3-((S)-sec-butyl)-4-(3-oxo-2,8-diazaspiro[4.5]decane-8-carbonyl)-1,3,4,5-tetrahydro-2H-benzo[e][1,4]diazepin-2-one], the AC1.4 was determined as 3.88 µM.

In the case of `CC[C@H](C)[C@H]1C(=O)Nc2ccccc2CN1C(=O)N1CCN(S(C)(=O)=O)CC1` [Compound 246, (S)-3-((S)-sec-butyl)-4-(4-(methylsulfonyl)piperazine-1-carbonyl)-1,3,4,5-tetrahydro-2H-benzo[e][1,4]diazepin-2-one], the AC1.4 was found to be 1.64 µM.

Consider `CC[C@H](C)[C@H]1C(=O)Nc2ccccc2CN1C(=O)N1CCC[C@H](NS(C)(=O)=O)C1` [Compound 247, N-((S)-1-((S)-3-((S)-sec-butyl)-2-oxo-2,3,4,5-tetrahydro-1H-benzo[e][1,4]diazepine-4-carbonyl)piperidin-3-yl)methanesulfonamide], for which the AC1.4 came to 2.49 µM.

For `CC[C@H](C)[C@H]1C(=O)Nc2ccccc2CN1C(=O)N1CCC[C@@H](NS(C)(=O)=O)C1` [Compound 248, N-((R)-1-((S)-3-((S)-sec-butyl)-2-oxo-2,3,4,5-tetrahydro-1H-benzo[e][1,4]diazepine-4-carbonyl)piperidin-3-yl)methanesulfonamide], the AC1.4 came to 3.71 µM.

Consider `CC[C@H](C)[C@H]1C(=O)Nc2ccccc2CN1C(=O)N1CC(C(=O)O)C1` [Compound 249, 1-((S)-3-((S)-sec-butyl)-2-oxo-2,3,4,5-tetrahydro-1H-benzo[e][1,4]diazepine-4-carbonyl)azetidine-3-carboxylic acid], for which the AC1.4 came to 4.51 µM.

In the case of `CC[C@H](C)[C@H]1C(=O)Nc2ccccc2CN1C(=O)N1CC(C(N)=O)C1` [Compound 250, 1-((S)-3-((S)-sec-butyl)-2-oxo-2,3,4,5-tetrahydro-1H-benzo[e][1,4]diazepine-4-carbonyl)azetidine-3-carboxamide], the AC1.4 was 0.60 µM.

Take `CC[C@H](C)[C@H]1C(=O)Nc2ccccc2CN1C(=O)Nc1nncs1` [Compound 251, (S)-3-((S)-sec-butyl)-2-oxo-N-(1,3,4-thiadiazol-2-yl)-1,2,3,5-tetrahydro-4H-benzo[e][1,4]diazepine-4-carboxamide]: the AC1.4 came to 0.08 µM.

As to `CC[C@H](C)[C@H]1C(=O)Nc2ccccc2CN1C(=O)N[C@@H](C(N)=O)c1ccccc1` [Compound 252, (S)-N-((R)-2-amino-2-oxo-1-phenylethyl)-3-((S)-sec-butyl)-2-oxo-1,2,3,5-tetrahydro-4H-benzo[e][1,4]diazepine-4-carboxamide], the AC1.4 is 0.44 µM.

With `CC[C@H](C)[C@H]1C(=O)Nc2ccccc2CN1C(=O)Nc1ccc(=O)n(CC)c1` [Compound 253, (S)-3-((S)-sec-butyl)-N-(1-ethyl-6-oxo-1,6-dihydropyridin-3-yl)-2-oxo-1,2,3,5-tetrahydro-4H-benzo[e][1,4]diazepine-4-carboxamide], the AC1.4 was 0.08 µM.

Consider `CC[C@H](C)[C@H]1C(=O)Nc2ccccc2CN1C(=O)Nc1ccc(=O)n(CC2CC2)c1` [Compound 254, (S)-3-((S)-sec-butyl)-N-(1-(cyclopropylmethyl)-6-oxo-1,6-dihydropyridin-3-yl)-2-oxo-1,2,3,5-tetrahydro-4H-benzo[e][1,4]diazepine-4-carboxamide], for which the AC1.4 was found to be 0.07 µM.

`CC[C@H](C)[C@H]1C(=O)Nc2ccccc2CN1C(=O)Nc1cccn(CCOC)c1=O` [Compound 255, (S)-3-((S)-sec-butyl)-N-(1-(2-methoxyethyl)-2-oxo-1,2-dihydropyridin-3-yl)-2-oxo-1,2,3,5-tetrahydro-4H-benzo[e][1,4]diazepine-4-carboxamide]: the AC1.4 was found to be 0.13 µM.

As for `CC[C@H](C)[C@H]1C(=O)Nc2ccccc2CN1C(=O)N[C@@H](C)C(N)=O` [Compound 256, (S)-N-((S)-1-amino-1-oxopropan-2-yl)-3-((S)-sec-butyl)-2-oxo-1,2,3,5-tetrahydro-4H-benzo[e][1,4]diazepine-4-carboxamide], the AC1.4 was 1.89 µM.

Consider `CC[C@H](C)[C@H]1C(=O)Nc2ccccc2CN1C(=O)Nc1cc(C(F)(F)F)c[nH]c1=O` [Compound 257, (S)-3-((S)-sec-butyl)-2-oxo-N-(2-oxo-5-(trifluoromethyl)-1,2-dihydropyridin-3-yl)-1,2,3,5-tetrahydro-4H-benzo[e][1,4]diazepine-4-carboxamide], for which the AC1.4 was 0.02 µM.

For the compound `CC[C@H](C)[C@H]1C(=O)Nc2ccccc2CN1C(=O)Nc1cc(-c2ccncc2)c[nH]c1=O` [Compound 258, (S)-3-((S)-sec-butyl)-2-oxo-N-(6-oxo-1,6-dihydro-[3,4′-bipyridin]-5-yl)-1,2,3,5-tetrahydro-4H-benzo[e][1,4]diazepine-4-carboxamide], the AC1.4 was 0.29 µM.

With `CC[C@H](C)[C@H]1C(=O)Nc2ccccc2CN1C(=O)NCC(=O)N1CCC[C@H]1C(=O)O` [Compound 259, ((S)-3-((S)-sec-butyl)-2-oxo-2,3,4,5-tetrahydro-1H-benzo[e][1,4]diazepine-4-carbonyl)glycyl-L-proline], the AC1.4 turned out to be 2.44 µM.

Turning to `CC[C@H](C)[C@H]1C(=O)Nc2ccccc2CN1C(=O)NCCN1CCNC1=O` [Compound 260, (S)-3-((S)-sec-butyl)-2-oxo-N-(2-(2-oxoimidazolin-1-yl)ethyl)-1,2,3,5-tetrahydro-4H-benzo[e][1,4]diazepine-4-carboxamide], the AC1.4 came to 1.91 µM.
